In patent US10226509B2, “Lymphangiogenesis inhibitors for cancer and for graft survival” (TUFTS UNIVERSITY, priority 2014, dated 2019):

Assays:
mouse corneas = test: Corneal mouse micropocket lymphangiogenesis assay; type: in vivo; settings: for mean lymphatic vessel areas: 160 ng pellet, seven days
Experimental: The corneal micropocket lymphangiogenesis assay was performed using implants containing a test agent, hydron (polyhydroxylmethylmethacrylate), and sucralfate (Cao, R., et al. 2011. Nat Protoc 6:817-826; Rogers, M. S., et al. 2007. Nat Protoc 2:2545-2550). Test agents included full-length Gal-8 (40-320 ng/pellet) and VEGF-C (160 ng/pellet). Implants containing hydron and sucralfate alone served as negative controls. The mice were anesthetized by intraperitoneal injection of a mixture of ketamine (90-120 mg/kg) and xylazine (10 mg/kg). The eyes were topically anesthetized with proparacaine and were gently proptosed (forwardly displaced) with forceps. Using a corneal blade and a stereoscope, intrastromal linear keratotomy was performed about 2 mm from the limbus. Using a von Graefe knife (Miltex), a pocket was extended towards the limbus, and the pellet was maneuvered into the pocket. The wound was coated with a veterinary ophthalmic ointment (Akorn) to prevent infection. Mouse corneas were harvested 7 days after pellet implantation, fixed in 4% paraformaldehyde/PBS (1 hour at 4° C.), washed with PBS, and fixed again in iced acetone (15 min at −20° C.). To quantitate the extent of lymphangiogenesis in Prox-1-EGFP reporter mice, flat mounts of the dissected corneas were evaluated by fluorescence microscopy. Fluorescent images were acquired by EVOS FL cell imaging system (Invitrogen), and vessel areas were calculated using the formula (Rogers, M. S., et al. 2007. Nat Protoc 2:2545-2550): vessel area=pellet distance×vessel length×clock hours×[…]. To quantitate the extent of lymphangiogenesis in WT and PDPN-deficient mice, corneas were stained with eFluor 570-anti-mouse LYVE-1 (clone ALY7, eBioScience, and 1:75) in 10% goat serum/0.2% Triton X-100/PBS overnight, 4° C. After several washes with 0.2% Triton X-100/PBS, the corneas were flattened and mounted with VECTASHIELD mounting medium (Vector Laboratories) and evaluated by fluorescence microscopy. In some examples, for comparisons, corneas were stained with Alexa Fluor® 488-anti-mouse CD31 (clone MEC13.3, 1:100, BioLegend) to visualize blood vessels.

PDPN and integrin α5β1 = target: T1, PDPN and integrin α5β1 (Homo sapiens, UniProt P05556+P08648+Q86YL7); test: Immunoprecipitation with anti-PDPN from LEC lysates; type: cell-based; settings: galectin-8 for 15 min at 37° C.
T1 construct: endogenous in cells; host or cells: primary lymphatic endothelial cells (LECs)
Experimental: Mouse isotype antibody (15 μg, Santa Cruz Biotechnology) and anti-PDPN (15 μg, clone E-1, Santa Cruz Biotechnology) were immobilized onto AminoLink Plus coupling resin (Pierce) by sodium cyanoborohydride according to manufacturer's instructions. Primary LECs were serum-starved overnight and treated with galectin-8 (0.2 μM) for 15 min at 37° C. After treatment, cells were lysed with IP lysis/wash buffer (25 mM Tris, 150 mM NaCl, 1 mM EDTA, 1% NP-40, 5% glycerol; pH 7.4) supplemented with protease inhibitor cocktails (Roche). After centrifugation (10 min, 13,000 rpm), supernatants (500 μg protein lysates) were pre-cleared by incubation for 1 hour with Pierce control agarose resin at 4° C. The clarified samples were incubated with the Ab-conjugated agarose resins overnight at 4° C. Immunoprecipitates were washed three times with IP lysis/wash buffer and once with conditioning buffer provided by the kit (Pierce). The bound proteins were eluted with low pH elution buffer, neutralized with Tris-HCl (pH 9.0), and analyzed with control inputs by western blotting using anti-integrin al (1:1,000, Abcam), anti-integrin α5 (clone H-104, 1:1,000, Santa Cruz Biotechnology), anti-integrin ([…] (clone N-20, 1:1,000, Santa Cruz Biotechnology), anti-PDPN, anti-galectin-8 (clone NBP1-66520, 1:1,000, Novus Biologicals) and anti-GAPDH as described in examples herein. […]

[1] = tested on: VEGF-C-induced LEC sprouting; test: LEC sprouting assay: VEGF-C-induced sprouting; type: cell-based, human
Experimental: LEC spheroids were generated by seeding primary LECs at passage 4 or 5 in each well of 384-well hanging-drop plates (3D Biomatrix) in complete EGM-2 MV medium containing 0.25% methyl cellulose according to the manufacturer's instructions (750 cells/well). After 18 hours, LEC spheroids were collected, resuspended in serum-free EBM-2 basal medium, and mixed with collagen solution (PureCol collagen, Advanced BioMatrix, 2.2 mg/ml in M199 medium, pH adjusted to 7.4 with NaHCO3 and NaOH). Aliquots of the LEC spheroid/collagen mixture (250 μl/well of 48-well plate) were incubated in the presence or absence of various test agents for 24 hr. At the end of the incubation period, spheroids were stained with Calcein AM (Invitrogen, 1 μg/mL, 37° C., and 30 min). Fluorescent images were acquired using the EVOS FL cell imaging system, pixels were inverted for better visualization and cumulative length of each sprout was calculated. Results were expressed as fold change compared to corresponding controls. It was observed that sprout lengths vary from passages to passages. Test agents used included thiodigalactoside (10 to 50 mM, Carbosynth), 3′-sialyl lactose (2 to 10 mM, Carbosynth), 6′-sialyl lactose (2 to 10 mM, Carbosynth), LY294002 (20 μM, Abeam), U0126 (20 μM, Abeam), PD0325901 (1 μM, Selleckchem), human VEGFR-3-Fc chimera (10 μg/ml, R&D), human VEGFR-2-Fc chimera (10 μg/ml, R&D), Avastin (10 μg/ml, bevacizumab, Genentech/Roche), human control IgG (10 μg/ml, Southern Biotech), anti-human podoplanin functional grade antibody (10 μg/ml, eBioscience), and rat IgG2a κ isotype control functional grade antibody (10 μg/ml, eBioscience).
In this assay, the LEC spheroids were treated with VEGF-C (50 ng/ml) in the presence or absence of 0.75 μM of Gal-8 for 24 hours, and then accumulated sprout lengths were quantified. […] Synergistic effect of Gal-8 on VEGF-C-induced LEC sprouting was dose-dependent. […] At concentrations >0.5 μM Gal-8, there was no further increase in the degree of VEGF-C-induced lymphangiogenesis (FIG. 4C).
To further characterize the role of carbohydrate-mediated recognition in VEGF-C-induced lymphangiogenesis, LEC spheroids were stimulated with VEGF-C (50 ng/ml) in the presence or absence of three different galectin inhibitors. […] Therefore, the data establishes the critical role of Gal-8-mediated carbohydrate-mediated recognition in VEGF-C-induced lymphangiogenesis.

T1 sequence (Q86YL7 23-162): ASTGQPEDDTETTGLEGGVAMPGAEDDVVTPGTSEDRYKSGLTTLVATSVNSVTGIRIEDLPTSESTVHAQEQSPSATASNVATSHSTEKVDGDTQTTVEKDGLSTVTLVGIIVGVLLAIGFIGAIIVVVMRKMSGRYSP
T1 sequence (P08648 42-894 limits assumed): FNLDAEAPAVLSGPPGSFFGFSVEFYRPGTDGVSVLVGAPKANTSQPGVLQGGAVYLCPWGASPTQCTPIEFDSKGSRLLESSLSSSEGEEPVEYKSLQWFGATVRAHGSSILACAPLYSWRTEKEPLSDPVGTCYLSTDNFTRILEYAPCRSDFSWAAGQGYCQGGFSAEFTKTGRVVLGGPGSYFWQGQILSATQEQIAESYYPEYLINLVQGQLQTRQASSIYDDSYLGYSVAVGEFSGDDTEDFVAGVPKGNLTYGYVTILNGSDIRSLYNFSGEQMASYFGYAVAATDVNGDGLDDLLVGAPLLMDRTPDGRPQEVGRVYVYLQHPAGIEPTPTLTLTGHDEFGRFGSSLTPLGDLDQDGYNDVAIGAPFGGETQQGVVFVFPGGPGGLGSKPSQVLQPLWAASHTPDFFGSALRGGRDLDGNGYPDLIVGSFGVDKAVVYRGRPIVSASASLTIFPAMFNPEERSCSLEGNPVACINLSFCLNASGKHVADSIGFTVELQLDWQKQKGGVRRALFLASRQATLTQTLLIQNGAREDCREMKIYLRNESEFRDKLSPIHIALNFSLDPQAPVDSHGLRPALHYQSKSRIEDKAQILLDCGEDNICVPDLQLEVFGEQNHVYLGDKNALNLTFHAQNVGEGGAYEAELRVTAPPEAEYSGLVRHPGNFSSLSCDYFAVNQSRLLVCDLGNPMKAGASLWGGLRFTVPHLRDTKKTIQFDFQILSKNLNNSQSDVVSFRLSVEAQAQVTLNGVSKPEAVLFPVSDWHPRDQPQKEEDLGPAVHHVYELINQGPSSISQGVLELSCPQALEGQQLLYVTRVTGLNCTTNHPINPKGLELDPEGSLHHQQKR
T1 sequence (P08648 895-1049 limits assumed): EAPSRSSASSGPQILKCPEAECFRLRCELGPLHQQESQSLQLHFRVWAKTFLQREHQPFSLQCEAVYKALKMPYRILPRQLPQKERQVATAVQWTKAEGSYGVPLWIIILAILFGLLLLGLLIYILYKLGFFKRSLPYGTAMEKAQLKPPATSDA
T1 sequence (P05556 21-798): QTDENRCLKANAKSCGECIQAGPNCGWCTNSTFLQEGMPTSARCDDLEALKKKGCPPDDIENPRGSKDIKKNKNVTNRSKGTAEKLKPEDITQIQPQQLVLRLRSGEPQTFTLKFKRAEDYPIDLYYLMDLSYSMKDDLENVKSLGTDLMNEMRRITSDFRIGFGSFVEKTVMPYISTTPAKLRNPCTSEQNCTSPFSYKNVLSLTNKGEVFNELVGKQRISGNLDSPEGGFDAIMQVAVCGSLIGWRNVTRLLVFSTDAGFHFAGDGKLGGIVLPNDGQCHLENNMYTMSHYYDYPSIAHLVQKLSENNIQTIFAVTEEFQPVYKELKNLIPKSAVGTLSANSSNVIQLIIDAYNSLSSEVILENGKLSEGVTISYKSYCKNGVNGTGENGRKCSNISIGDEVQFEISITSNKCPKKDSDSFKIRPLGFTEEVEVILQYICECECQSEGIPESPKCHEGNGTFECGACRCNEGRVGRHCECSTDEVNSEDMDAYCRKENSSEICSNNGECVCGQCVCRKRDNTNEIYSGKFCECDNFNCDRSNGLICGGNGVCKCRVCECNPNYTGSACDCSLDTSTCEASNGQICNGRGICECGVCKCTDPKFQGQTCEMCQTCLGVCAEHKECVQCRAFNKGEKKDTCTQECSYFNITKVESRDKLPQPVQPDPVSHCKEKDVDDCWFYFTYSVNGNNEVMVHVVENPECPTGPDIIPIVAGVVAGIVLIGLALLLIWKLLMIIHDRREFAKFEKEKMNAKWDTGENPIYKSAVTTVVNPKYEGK

Substance: Gal-8: recombinant galectin-8, tandem-repeat type galectin with two different CRDs
- mean lymphatic vessel areas (mouse corneas; PDPN KO mice): 0.28 mm^2
- mean lymphatic vessel areas (mouse corneas; WT mice): 0.78 mm^2
- lymphatic vessel growth, times higher than either VEGF-C pellet or Gal-8 pellet alone (mouse corneas; corneas implanted with both VEGF-C and Gal-8 pellets): 2.2 times
- lymphangiogenesis induced by pellet in cornea (in words) (mouse corneas; one week after implantation, Gal-8 40-320 ng/pellet, VEGF-C 160 ng, WT or Prox1-EGFP mice): increased in a dose-dependent manner
- effect of Gal-8 pellet on VEGF-C-induced lymphangiogenesis in vivo (in words) (mouse corneas; two separate pellets (VEGF-C and Gal-8), Prox1-EGFP reporter mice, one week): augmented VEGF-C-induced lymphangiogenesis
- association between PDPN and integrin α5β1 (PDPN and integrin α5β1): increased association between PDPN and integrin α5β1
- VEGF-C-induced LEC sprouting, times higher than VEGF-C alone or Gal-8 alone ([1]; VEGF-C 50 ng/ml plus 0.75 μM of Gal-8): 5 times
- effect on VEGF-C-induced LEC sprouting (in words) ([1]; VEGF-C 50 ng/ml, 24 h): markedly enhanced
